The values below are quoted from earlier work in patent US8323615B2, “Methods of processing multi-phasic dispersions” (Baxter International Inc., priority 2008, dated 2012).

The subject of one series is rats. Particulars: for LD50, cells marked "I": value followed by undefined mark "I".
The conditions of series [1]: ambient temperature such as 20-25° C.
The mark [2] stands for this setting: rats, oral, all at once (acute toxicity), minimal amount reported in the literature.

Structures can show the parent of a compound that is named as a salt. Where two headings read alike, the source gives them in different places.

On to `CC(Cl)(Cl)Cl` [1,1,1-trichloroethane], for which the LD50 with rats (setting [2]) was 9.6 g/kg body weight; with rats (rats, oral, all at once (acute toxicity), minimal amount reported in the literature, listed as 1,1,1-TCA), 16 g/kg body weight. Also, the figures for the “Sol. (solubility of water in the liquid)” value in series [1] (unit not given) and in series [1] (parts per million by weight) were 0.15 g/100 g and 170 ppm, respectively.
Turning to `ClC=C(Cl)Cl` [1,1,2-trichloroethylene], the LD50 in the series on rats (setting [2]) is 2.4 g/kg body weight. Besides, in series [1] (unit not given), the “Sol. (solubility of water in the liquid)” value is given as 0.11 g/100 g.
For `FC(F)(Cl)C(F)(F)Cl` [1,2-dichlorotetrafluoroethane], in the series on rats (setting [2]), the LD50 is on record as 2.25 g/kg body weight. Further, the “Sol. (solubility of water in the liquid)” value in series [1] (unit not given) is listed as 0.13 g/100 g.
For the compound `OCC(F)(F)F` [2,2,2-trifluoroethanol], the LD50 in the series on rats (setting [2]) is 0.24 g/kg body weight.
On to `C[S+](C)[O-]` [DMSO, dimethylsulfoxide], for which the LD50 in the series on rats (setting [2]) is reported as 18 g/kg body weight.
With `FC(F)(F)C(F)(F)C(F)(F)C(F)(F)N(C(F)(F)C(F)(F)C(F)(F)C(F)(F)F)C(F)(F)C(F)(F)C(F)(F)C(F)(F)F` [Fluorinert ® FC-43, perfluorotributylamine], in the series with rats (setting [2]), the LD50 is listed as 10 g/kg body weight. Further, in series [1] (parts per million by weight), the “Sol. (solubility of water in the liquid)” value is given as 7 ppm.
On to `FC(F)(F)C(F)(F)C(F)(F)C(F)(F)C(F)(F)N(C(F)(F)C(F)(F)C(F)(F)C(F)(F)C(F)(F)F)C(F)(F)C(F)(F)C(F)(F)C(F)(F)C(F)(F)F` [Fluorinert ® FC-70, perfluorotriamylamine], for which the LD50 entry in the series with rats (setting [2]) is “NTO”. The “Sol. (solubility of water in the liquid)” value in series [1] (parts per million by weight) is reported as 8 ppm.
On to `NC=O` [Formamide], for which, in the series on rats (setting [2]), the LD50 was 5.5 g/kg body weight.
As for `O=Cc1ccco1` [Furfural], the LD50 in the series on rats (rat, in vivo, po) was 0.05 g/kg body weight.
Regarding `CC(F)(Cl)Cl` [Genesolv ® 2000 HFC-141b], the LD50 in the series with rats (setting [2]) was greater than 5 g/kg body weight.
On to `FC(F)CC(F)(F)F` [Genesolv ® S-F, 1,1,1,3,3-pentafluoropropane], for which, in the series on rats, the “LD50, cells marked "I"” value is listed as greater than 200 I g/kg body weight. Also, in series [1] (parts per million by weight), the “Sol. (solubility of water in the liquid)” value was 1600 ppm.
Consider `FCC(F)(F)F` [Genetron ® HFC-134a], for which the “LD50, cells marked "I"” value in the series on rats is given as 62 I g/kg body weight. Further, in series [1] (in %), the “Sol. (solubility of water in the liquid)” value was 0.11%.
As for `OCC(O)CO` [Glycerol], the LD50 in the series with rats (rat, in vivo, po) is given as 13 g/kg body weight.
`FC(C(F)C(F)(F)C(F)(F)F)C(F)(F)F` (stereo not drawn) [HFC-4310mee]: the “LD50, cells marked "I"” value in the series on rats was 11 I g/kg body weight. In addition, in series [1] (parts per million by weight), the “Sol. (solubility of water in the liquid)” value is recorded as 400 ppm.
Take `CN1CCCC1=O` [N-methylpyrrolidone]: the LD50 with rats (setting [2]) is given as 4.15 g/kg body weight. For the same compound, the “Sol. (solubility of water in the liquid)” value in series [1] (in %) is reported as 100%.
As for `O=C(C(F)(F)C(F)(F)F)C(F)(C(F)(F)F)C(F)(F)F` [Novec ™ 1230, dodecafluoro-2-methylpentan-3-one], the “LD50, cells marked "I"” value in the series with rats was greater than 100 I g/kg body weight.
Take `COC(F)(F)C(F)(F)C(F)(F)F` [Novec ™ HFE-7000, 1-methoxyheptafluoropropane]: the LD50 in the series with rats (setting [2]) is on record as greater than 2 g/kg body weight. The “Sol. (solubility of water in the liquid)” value in series [1] (parts per million by weight) is on record as 60 ppm.
In the case of `CCOC(F)(F)C(F)(F)C(F)(F)C(F)(F)F` [Novec ™ HFE-7200, ethoxynonafluorobutane], the LD50 in the series on rats (setting [2]) is greater than 5 g/kg body weight. In series [1] (parts per million by weight), the “Sol. (solubility of water in the liquid)” value was 92 ppm.
`CCOC(F)(C(F)(F)C(F)(F)C(F)(F)F)C(F)(C(F)(F)F)C(F)(F)F` (stereo not drawn) [Novec ™ HFE-7500, 2-trifluoromethyl-3-ethoxydodecafluorohexane]: the LD50 in the series on rats (setting [2]) is recorded as greater than 2 g/kg body weight.
As to `FC(F)(F)C(F)(F)C(F)(F)C(F)(F)C(F)(F)C(F)(F)F` [PF-5060 & PF-5060DL], the LD50 in the series on rats (setting [2]) was greater than 5 g/kg body weight.
For the compound `FC(F)(F)C(F)(F)C(F)(F)C(F)(F)C(F)(F)C(F)(F)F` [Perfluorohexane], the LD50 in the series with rats (setting [2]) is 5 g/kg body weight. Besides, the “Sol. (solubility of water in the liquid)” value is recorded as 0.03 g/100 g in series [1] (unit not given) and 10 ppm in series [1] (parts per million by weight).
Take `O=S1(=O)CCCC1` [Sulfolane]: in the series with rats (setting [2]), the LD50 is given as 1.94 g/kg body weight.
As for `C1OCOCO1` [Trioxane], the LD50 in the series on rats (setting [2]) was 3.2 g/kg body weight. Also, the “Sol. (solubility of water in the liquid), in words” value in series [1] is “soluble”.
On to `S=C=S` [carbon disulfide], for which the LD50 with rats (rat, in vivo, po) was 3.2 g/kg body weight. The “Sol. (solubility of water in the liquid)” value in series [1] (in %) is on record as less than 1%.
Consider `ClC(Cl)(Cl)Cl` [carbon tetrachloride], for which the LD50 in the series on rats (setting [2]) is 2.3 g/kg body weight. The “Sol. (solubility of water in the liquid)” value in series [1] (unit not given) was 0.05 g/100 g.
On to `CCOC(=O)C(=O)OCC` [diethyl oxalate], for which the LD50 with rats (rat, in vivo, po) is given as 0.4 g/kg body weight.
As to `COCCOCCO` [diethylene glycol methyl ether], the “Sol. (solubility of water in the liquid)” value in series [1] (in %) was 100%.
Consider `OCCOCCO` [diethylene glycol], for which the LD50 with rats (setting [2]) is listed as 13 g/kg body weight.
On to `c1ccc(Oc2ccccc2)cc1` [diphenyl ether], for which the LD50 in the series with rats (setting [2]) is recorded as 3.37 g/kg body weight.
Regarding `O=C1OCCO1` [ethylene carbonate], the LD50 in the series on rats (setting [2]) is reported as 10 g/kg body weight.
In the case of `OCCOCc1ccccc1` [ethylene glycol monobenzyl ether], the LD50 in the series on rats (setting [2]) is listed as 1.19 g/kg body weight. Besides, the “Sol. (solubility of water in the liquid)” value in series [1] (unit not given) is given as 4 g/100 g.
Take `OCc1ccco1` [furfuryl alcohol]: in the series on rats (rat, in vivo, po), the LD50 is listed as 0.275 g/kg body weight.
For `O=C1CCCO1` [gamma-butyrolactone], the LD50 in the series with rats (rat, in vivo, po) is on record as 1.54 g/kg body weight.
In the case of `COC(=O)C(C)O` (stereo not drawn) [lactic acid, methyl ester], the LD50 with rats (setting [2]) is on record as 2 g/kg body weight. Besides, the “Sol. (solubility of water in the liquid), in words” value in series [1] was “decomp”.
Turning to `CC(O)C(=O)O` (stereo not drawn) [lactic acid], the LD50 with rats (rat, in vivo, po) was 3.7, 3.5 g/kg body weight; in the series on rats (setting [2]) it was 3.7, 3.5 g/kg body weight.
As to `ClCCl` [methylene chloride], in the series with rats (setting [2]), the LD50 is 1.6 g/kg body weight. In addition, the “Sol. (solubility of water in the liquid)” value in series [1] (unit not given) was 1.32 g/100 g.
Take `Fc1cc(F)c(F)c(F)c1F` [pentafluorobenzene]: in the series on rats (rat, in vivo, po), the LD50 is recorded as 2 g/kg body weight.
For the compound `OCC(F)(F)C(F)(F)F` [pentafluoropropyl alcohol], in the series on rats (setting [2]), the LD50 was 1 g/kg body weight. Besides, the “Sol. (solubility of water in the liquid), in words” value in series [1] was “soluble”.
Consider `CC1COC(=O)O1` (stereo not drawn) [propylene carbonate], for which, in the series with rats (setting [2]), the LD50 is 29 g/kg body weight. In addition, in series [1] (in %), the “Sol. (solubility of water in the liquid)” value is 23%.
As for `CC(O)CO` (stereo not drawn) [propylene glycol], the LD50 in the series with rats (setting [2]) is reported as 22 g/kg body weight.
Turning to “methoxynonafluorobutane [Novec ™ HFE-7100]”, the LD50 in the series on rats (setting [2]) is recorded as greater than 5 g/kg body weight. Moreover, in series [1] (parts per million by weight), the “Sol. (solubility of water in the liquid)” value is reported as 95 ppm.
On to “tetrahydrofurfuryl alcohol polyethyleneglycol ether [Glycofurol]”, for which the LD50 in the series on rats (setting [2]) is recorded as 7.8 g/kg body weight. Also, the “Sol. (solubility of water in the liquid)” value in series [1] (in %) is reported as greater than 50%.
For the compound trimethylene glycol, the LD50 with rats (rat, in vivo, po) is 4.77 g/kg body weight.
